Measured values: patent US8518889B2, “Method of treating cancer with antibodies against long-form leukotriene B4 receptor BLT2” (Korea University Research & Business Foundation, priority 2007, dated 2013)

Experiments:
[1] = system: Rat2-BLT2 cells; test: experimental metastasis assay, lung metastasis driven by BLT2; assay type: in vivo, nude mice; settings: intraperitoneal 3 and 5 days after cell injection, 21 days
Method: All experimental animals used in this study were treated according to guidelines approved by the Institutional Animal Care and Use Committee of Korea University. Female nude mice (Charles River, Wilmington, Mass.), four-weeks-old at the time of injection, were used in the experimental metastasis assay. Rat-2, Rat2-HO6, and Rat2-BLT2 cells (5×10^5 cells) were prepared for injection from cultures in logarithmic growth at the time of harvest. The cells were briefly treated with 0.025% trypsin and 0.1% EDTA in Hanks' balanced salt solution and quickly removed from trypsin by centrifugation, resuspended in saline containing LTB4, and injected within 1 hr in 0.1 ml into the lateral tail vein with a 26-gauge needle. For inhibitor experiments, U75302 and LY255283 (0.25 mg/kg for BLT1 antagonist and 2.5 mg/kg for BLT2 antagonist) was injected intraperitoneal ˜3 and 5 days after injection of cells that were pretreated with inhibitors. […]
In vivo lung metastasis driven by H-Ras^V12 (panel B of FIG. 2a) or BLT2 (panel C of FIG. 2a) was reduced by BLT2 inhibition (LY255283) based on the macroscopic and histologic appearance of lung. […] Mice were euthanized 21 days after cell injection, and the number of lung metastasis nodules and weight of lung was analyzed in each group. […] Metastasis survival was analyzed in Kaplan-Meyer plots.

[2] = system: SV-HUC-1 cells; test: [3H]-thymidine incorporation assay; assay type: cell-based; settings: 48 hr
Method: Cells were seed in 96-well plate at the density of 1.0×10^4/well. After 24 hr incubation in RPMI 1640 supplemented with 10% FBS, the media was replaced with RPMI 1640 containing 0.5% FBS for 12 hr. After cells were treated with different concentration BLT antagonists. Then [^3H]-thymidine (1 μCi/ml) (PerkinElmer Life Sciences) was added at 12 hr after antagonists treatment and after 36 hr of further incubation, cells were harvested on the filtermat (PerkinElmer Life Science) and filtermat was dried and packaged in the sample bag (PerkinElmer Life Science). Finally, Betaplate scint (PerkinElmer Life Science) was added to the filtermat, and the radioactivity was counted in a liquid scintillation counter (MicroBeta, Wallac/PerkinElmer). […] LY255283 inhibited proliferation by at least 50% at a concentration of 10 μM at 48 hr.

[3] = system: MCF-7 cells; test: Western blot analysis of PARP and caspase-9; assay type: cell-based, human; settings: LY255283 10 μM, epirubicin 100 ng/ml
[4] = system: acute lung injury induced by endotoxin; settings: pigs; cited from earlier work
[5] = system: LNCaP cells; test: cell cycle analysis (PI, flow cytometry); assay type: cell-based, human; settings: 5 μM, 48 hr
Method: After LNCaP cells and PWR-1E cells were treated with 5 μM LY255283 for 48 hr, the cells were fixed with 70% ethanol and stained with Pl. Cell cycle was analyzed using flow cytometry. The cells grown in 6-well cluster dishes were stimulated with 5 μM LY255283 for 48 h in serum free RPMI 1640. The cells which were collected by brief trypsinization were fixed for 12 hr with 70% ethanol at 4° C. The cells were resuspended in PBS containing RNase A (100 μg/ml) and incubated for 30 min at 37° C. The cells were stained with propidium iodide (50 μg/ml) (Sigma). Acquisition and analysis was performed by FACS using Cell Quest Alias software (BD Bioscience).

[6] = system: PWR-1E cells; test: MTT assay, cell viability; assay type: cell-based; settings: increasing concentration, 48 hr, serum free RPMI 1640
Method: The effect of LY255283, BLT2 antagonist, on cell viability was examined by MTT assay. PWR-1E cells were seeded at a density of 1.0×10^4 cells/well and LNCaP cells were seeded at a density of 1.5×10^4 cells/well in 96-well culture dishes. After 36 hr, the medium was replaced with serum free RPMI 1640 and cells were stimulated with DMSO or LY255283 of increasing concentration. MTT (1 mg/mu) was added at 48 hr after LY255283 treatment and after 4 hr of further incubation the medium was replaced with DMSO. Then cells were incubated at room temperature for 10 min. The spectrophotometric absorbance of the samples was determined by using Ultra Multifunctional Microplate Reader at 540 nm. LNCaP cells and PWR-1E cells were stimulated with LY255283 of various concentration in serum free RPM11640.

[7] = system: MDA-MB-468 cells; test: DAPI staining, apoptotic cells; assay type: cell-based, human; settings: 2, 5, 10 μM, 48 h
Method: Cells were grown on sterile coverslips at a density of 7×10^5 cells/plate in 35-mm plate. After 24 h, cells incubated in media containing serum-free for 3 h. Then, cells were treated with U75302 (0.5, 1 μM), LY255283 (5, 10 μM) and incubated at 37° C. for 48 h. Then, cells were fixed with 70% cold-ethanol for 30 min at room temperature, and then washed once with PBS. DAPI (50 ng/ml) was added to the fixed cells, incubated for 20 min at room temperature, and washed with PBS. Cells were mounted and examined by fluorescence microscopy. Apoptotic cells were identified by the condensation and fragmentation of their nuclei. The percentage of apoptotic cells was calculated as the ratio of apoptotic cells to total cells counted. A minimum of 500 cells were counted for each treatment.

SMILES	lung metastasis driven by BLT2 [1]	inhibition of thymidine incorporation / cell proliferation [2]	PARP cleavage [3]	activation of neutrophils and acute lung injury induced by endotoxin [4]	sub-G1 population [5]	PWR-1E cell viability (MTT) [6]	apoptosis (DAPI staining) [7]
CCCCC/C=C\C[C@@H](O)/C=C/c1cccc(C[C@@H](O)CCCCO)n1 [U75302]	caused no suppression on metastasis	not effect	–	–	–	–	–
CCc1cc(C(C)=O)c(O)cc1OCCCCCC(C)(C)c1nnn[nH]1 [LY255283, 1-[5-ethyl-2-hydroxy-4-[[6-methyl-6-(1H-tetrazol-5-yl)heptyl]oxy]phenyl]-ethanone]	–	–	PARP cleavage was detectable	limits activation of neutrophils and prevents acute lung injury	increased population of cells with sub-GI DNA content	no effect	induces apoptosis via a dose-dependent manner
